Among the data in patent US20230017045A1, “PYRIDINE AND PYRIMIDINE CARBOXYLATE HERBICIDES AND METHODS OF USE THEREOF” (Dow AgroSciences LLC, priority 2017, published 2023) are pest or weed control values, retold here.

Each structure is given as a SMILES string. Where two headings read alike, the source gives them in different places.

The experiment has as its system test plant species. In words: Post-emergent herbicidal activity test (greenhouse, foliar spray, visual growth reduction). Format: in vivo. To be noted: post-emergence, 336 h, 140 g ai/ha. An outline of the steps:
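Greenhouse plants at first–second true leaf stage sprayed overhead at 187 L/ha with compound in acetone/water/isopropanol/DMSO/crop oil/X-77 carrier; controls received solvent blank. Injury rated visually after 14 d on a 0–100% scale versus untreated and control plants, converted to growth reduction.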

Where [1] appears, read: ECHCG: barnyardgrass (Echinochloa crus-galli), 14 days after application, read-out: Visual Growth Reduction (%) 14 Days After Application, ECHCG.
The mark [2] stands for this setting: IPOHE: ivy-leaf morning glory (Ipomoea hederacea), 14 days after application, read-out: Visual Growth Reduction (%) 14 Days After Application, IPOHE.
[3] abbreviates: KCHSC: kochia (Bassia scoparia), 14 days after application, read-out: Visual Growth Reduction (%) 14 Days After Application, KCHSC.
Setting [4] is: ORYSA: rice (Oryza sativa), 14 days after application, read-out: Visual Growth Reduction (%) 14 Days After Application, ORYSA.
The mark [5] stands for this setting: SETFA: giant foxtail (Setaria faberi), 14 days after application, read-out: Visual Growth Reduction (%) 14 Days After Application, SETFA.
Setting [6] is: SORVU: grain sorghum (Sorghum vulgare), 14 days after application, read-out: Visual Growth Reduction (%) 14 Days After Application, SORVU.
[7] abbreviates: STEME: common chickweed (Stellaria media), 14 days after application, read-out: Visual Growth Reduction (%) 14 Days After Application, STEME.
Where [8] appears, read: TRZAS: wheat, spring (Triticum aestivum), 14 days after application, read-out: Visual Growth Reduction (%) 14 Days After Application, TRZAS.
The mark [9] stands for this setting: blackgrass (Alopecurus myosuroides), 14 Days After Application, read-out: Visual Growth Reduction (%) ALOMY.
Where [10] appears, read: canada thistle (Cirsium arvense), 14 Days After Application, read-out: Visual Growth Reduction (%) CIRAR.
Where [11] appears, read: crabgrass (Digitaria sanguinalis), 14 Days After Application, read-out: Visual Growth Reduction (%) DIGSA.
Setting [12] is: lambsquarters (Chenopodium album), 14 Days After Application, read-out: Visual Growth Reduction (%) CHEAL.
Where [13] appears, read: redroot pigweed (Amaranthus retroflexus), 14 Days After Application, read-out: Visual Growth Reduction (%) AMARE.
Setting [14] is: wild oat (Avena fatua), 14 Days After Application, read-out: Visual Growth Reduction (%) AVEFA.
Where [15] appears, read: yellow nutsedge (Cyperus esculentus), 14 Days After Application, read-out: Visual Growth Reduction (%) CYPES.

On to `COC(=O)c1nc(-c2ccc3c(c2)C(F)(F)OC(F)(F)O3)ccc1Cl` [F203, Methyl 3-chloro-6-(2,2,4,4-tetrafluoro-4H-benzo[d][1,3]dioxin-6-yl) picolinate], for which the pest or weed control at 140 g/ha under setting [1] was 0 to 29%; the pest or weed control at 140 g/ha under setting [2] lay in the range of 30 to 44%; the pest or weed control at 140 g/ha under setting [3] lay in the range of 0 to 29%; the pest or weed control at 140 g/ha under setting [4] was 0 to 29%; the pest or weed control at 140 g/ha under setting [5] was in the range of 0 to 29%; the pest or weed control at 140 g/ha under setting [6] was 0 to 29%. The pest or weed control at 140 g/ha lay in the range of 0 to 29% under setting [7]; 0 to 29% under setting [8]; 0 to 29% under setting [9]; 0 to 29% under setting [10]; 0 to 29% under setting [11]; 0 to 29% under setting [12]. The pest or weed control at 140 g/ha fell in the range of 0 to 29% under setting [13], 0 to 29% under setting [14] and 0 to 29% under setting [15].
In the case of `COC(=O)c1nc(-c2ccc3c(c2)C(F)(F)OC(F)(F)O3)c(F)cc1Cl` [F204, Methyl 3-chloro-5-fluoro-6-(2,2,4,4-tetrafluoro-4H-benzo[d][1,3]dioxin-6-yl)picolinate], the pest or weed control at 140 g/ha was 0 to 29% under setting [1]; 30 to 44% under setting [2]; 0 to 29% under setting [3]; 0 to 29% under setting [4]; 0 to 29% under setting [5]; 0 to 29% under setting [6]. The pest or weed control at 140 g/ha lay within 0 to 29% under setting [7]; 0 to 29% under setting [8]; 0 to 29% under setting [9]; 0 to 29% under setting [10]; 0 to 29% under setting [11]; 0 to 29% under setting [12]. For the same compound, the pest or weed control at 140 g/ha under setting [13] lay within 0 to 29%, the pest or weed control at 140 g/ha under setting [14] fell in the range of 0 to 29% and the pest or weed control at 140 g/ha under setting [15] is 0 to 29%.
For the compound `O=C(O)c1nc(-c2cnc(C(F)(F)F)cc2Cl)ccc1Cl` [F205, 4′,5-Dichloro-6′-(trifluoromethyl)-[2,3′-bipyridine]-6-carboxylic acid], the pest or weed control at 140 g/ha lay within 45 to 59% under setting [1]; 95 to 100% under setting [2]; 0 to 29% under setting [3]; 0 to 29% under setting [4]; 75 to 84% under setting [5]; 75 to 84% under setting [6]. The pest or weed control at 140 g/ha reads like this: under setting [7], 0 to 29%; under setting [8], 0 to 29%; under setting [9], 0 to 29%; under setting [10], 75 to 84%; under setting [11], 45 to 59%; under setting [12], 75 to 84%. Further, the pest or weed control at 140 g/ha under setting [13] lay in the range of 30 to 44%, the pest or weed control at 140 g/ha under setting [14] was 0 to 29% and the pest or weed control at 140 g/ha under setting [15] was 0 to 29%.
Take `COC(=O)c1nc(-c2c(Cl)cc(C(F)(F)F)cc2[N+](=O)[O-])ccc1Cl` [F206, Methyl 3-chloro-6-(2-chloro-6-nitro-4-(trifluoromethyl)phenyl)picolinate]: the pest or weed control at 140 g/ha reads like this: under setting [1], 0 to 29%; under setting [2], 95 to 100%; under setting [3], 30 to 44%; under setting [4], 75 to 84%; under setting [5], 75 to 84%; under setting [6], 75 to 84%. Also, the pest or weed control at 140 g/ha is 0 to 29% under setting [7]; 0 to 29% under setting [8]; 0 to 29% under setting [9]; 30 to 44% under setting [10]; 45 to 59% under setting [11]; 30 to 44% under setting [12]. Also, the pest or weed control at 140 g/ha runs as follows: under setting [13], 45 to 59%; under setting [14], 0 to 29%; under setting [15], 0 to 29%.
`Cc1cnc(-c2ccc(Cl)c(C(=O)O)n2)c(F)c1` [F208, 5-Chloro-3′-fluoro-5′-methyl-[2,2′-bipyridine]-6-carboxylic acid]: the pest or weed control at 140 g/ha under setting [1] was 0 to 29%; the pest or weed control at 140 g/ha under setting [2] was in the range of 0 to 29%; the pest or weed control at 140 g/ha under setting [3] fell in the range of 0 to 29%; the pest or weed control at 140 g/ha under setting [4] fell in the range of 0 to 29%; the pest or weed control at 140 g/ha under setting [5] lay in the range of 0 to 29%; the pest or weed control at 140 g/ha under setting [6] is 0 to 29%. In addition, the pest or weed control at 140 g/ha runs as follows: under setting [7], 0 to 29%; under setting [8], 0 to 29%; under setting [9], 0 to 29%; under setting [10], 0 to 29%; under setting [11], 0 to 29%; under setting [12], 85 to 94%. Also, the pest or weed control at 140 g/ha lay in the range of 0 to 29% under setting [13], 0 to 29% under setting [14] and 0 to 29% under setting [15].
`COC(=O)c1nc(-c2ccc(C(F)F)cc2)c(F)cc1Cl` [F209, Methyl 3-chloro-6-(4-(difluoromethyl)phenyl)-5-fluoropicolinate]: the pest or weed control at 140 g/ha runs as follows: under setting [1], 0 to 29%; under setting [2], 85 to 94%; under setting [3], 0 to 29%; under setting [4], 0 to 29%; under setting [5], 0 to 29%; under setting [6], 0 to 29%. Besides, the pest or weed control at 140 g/ha under setting [7] lay within 0 to 29%; the pest or weed control at 140 g/ha under setting [8] was in the range of 0 to 29%; the pest or weed control at 140 g/ha under setting [9] fell in the range of 0 to 29%; the pest or weed control at 140 g/ha under setting [10] lay within 60 to 74%; the pest or weed control at 140 g/ha under setting [11] was 0 to 29%; the pest or weed control at 140 g/ha under setting [12] lay within 85 to 94%. Also, the pest or weed control at 140 g/ha was 45 to 59% under setting [13], 0 to 29% under setting [14] and 0 to 29% under setting [15].
In the case of `COC(=O)c1nc(-c2ccc(OC(F)(F)F)cc2Cl)c(F)cc1Cl` [F210, Methyl 3-chloro-6-(2-chloro-4-(trifluoromethoxy)phenyl)-5-fluoropicolinate], the pest or weed control at 140 g/ha runs as follows: under setting [1], 60 to 74%; under setting [2], 95 to 100%; under setting [3], 75 to 84%; under setting [4], 0 to 29%; under setting [5], 85 to 94%; under setting [6], 95 to 100%. Moreover, the pest or weed control at 140 g/ha is, setting by setting: under setting [7], 0 to 29%; under setting [8], 45 to 59%; under setting [9], 45 to 59%; under setting [10], 85 to 94%; under setting [11], 85 to 94%; under setting [12], 85 to 94%. In addition, the pest or weed control at 140 g/ha was 95 to 100% under setting [13], 60 to 74% under setting [14] and 0 to 29% under setting [15].
As to `COC(=O)c1nc(-c2cc(N)c(C(F)(F)F)cc2Cl)ccc1Cl` [F211, methyl 6-(5-amino-2-chloro-4-(trifluoromethyl)phenyl)-3-chloropicolinate], the pest or weed control at 140 g/ha lay in the range of 60 to 74% under setting [1]; 95 to 100% under setting [2]; 75 to 84% under setting [3]; 0 to 29% under setting [4]; 45 to 59% under setting [5]; 60 to 74% under setting [6]. Moreover, the pest or weed control at 140 g/ha under setting [7] lay in the range of 0 to 29%; the pest or weed control at 140 g/ha under setting [8] lay within 0 to 29%; the pest or weed control at 140 g/ha under setting [9] was in the range of 0 to 29%; the pest or weed control at 140 g/ha under setting [10] was in the range of 85 to 94%; the pest or weed control at 140 g/ha under setting [11] lay within 30 to 44%; the pest or weed control at 140 g/ha under setting [12] was 95 to 100%. Besides, the pest or weed control at 140 g/ha was in the range of 85 to 94% under setting [13], 0 to 29% under setting [14] and 0 to 29% under setting [15].
